# Experimental data: article PMC7083880 (Nature Communications, 2020)
# Experiments:
# Assay type in all cases: cell-based, human
# [1] = test system: wild-type TP53 in HeLa cells; assay: p53 function: luciferase under promoter with two p53-responsive elements, HeLa
# [2] = test system: firefly luciferase construct with UGA PTC in HeLa cells; assay: UGA readthrough luciferase assay with empty expression vector (E.v.) control;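 as to luciferase activity, average: DAP exposure for 24 h before luciferase measurement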;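 as to luciferase activity, exp2: DAP exposure for 24 h before luciferase measurement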
# Text: Firefly luciferase from HEK293FT cells transfected with the Fluc-int-UGA construct was immunoprecipitated and digested with trypsin. The MS/MS spectrum of the peptide containing the PTC position and the sequence determination are shown. The upper red and blue sequences indicate the amino acids validated, respectively, by detection of Nter and Cter peptide fragments (b and y ion series). Peptide fragments y6 and y7 clearly identify tryptophan (W) at the PTC position. The black peaks correspond to non-attributed mass-to-charge ratio (m/z) values. […] Readthrough efficiency was determined by measuring luciferase activity in HeLa cells co-transfected with the firefly luciferase construct described in Fig. 1b and with increasing amounts of an expression vector for either FTSJ1 or CTU1 (0.5, 1, or 2 µg). The empty expression vector (E.v.) was used as control. […] The experiment was performed twice and the results of both experiments (Exp1 and Exp2) are shown. c Western blot analysis of FTSJ1 and CTU1. d 2′-O-methylation analysis of tRNA^Trp, tRNA^SER, and tRNA^GLN by RiboMethSeq. […] A molecular weight marker is indicated to the left of each gel. p-values (p) were calculated using Student’s t-test. Source data are provided as a Source Data file.
# Among the enzymes modifying tRNAs liable to recognize a stop codon by extended wobbling, human FTSJ1 (TRM7 in yeast) exclusively modifies tRNAs involved in UGA readthrough. In addition to other tRNA targets, FTSJ1 methylates the cytosine at position 34 of tRNA^Trp. Inhibition of this modification could increase the capacity of tRNA^Trp to misdecode and recognize the UGA stop codon. […] FTSJ1 and CTU1 overexpression were assessed by western-blot analysis (Fig. 5c).
# [3] = test system: endogenous TP53 gene with UGA nonsense mutation in Calu-6 cells; assay: p53 protein western blot, Calu-6 cells; conditions: 24 h
# Protocol: After 24 h of treatment, proteins were extracted from the cells and the p53 protein was assessed by western blotting (Fig. 2a). After DMSO mock treatment, as anticipated, no p53 protein was detected, because of the presence of the PTC in p53 mRNA[33].
# The three leftmost lanes show twofold serial dilutions of untreated HeLa cell extract. The molecular weight is indicated to the left of each gel. b Schematic representation of the construct used to measure the function of p53. The construct carries a cDNA encoding the firefly luciferase under a promoter having two p53-responsive elements (underlined). […] The level of p21 mRNA is related to the amount of functional p53 protein synthesized in the cell. The results presented in panels b and c are representative of at least two independent experiments., p-values (p) were calculated using Student’s t-test. Source data are provided as a Source Data file.
# Proteins were extracted from 2 × 10^6 cells in lysis buffer containing 5% SDS, 50 mM Tris–HCl pH 7, 20 mM EDTA, and a protease inhibitor cocktail (HALT Protease Inhibitor Cocktail, Pierce-Biotechnology, Rockford, IL, USA). Lysates were subjected to 30 pulses of sonication (Branson Digital Sonifier/amplitude 20%) before a 5 min centrifugation at 8000×g.
# The equivalent of 2.5 × 10^5 cells was subjected to 10% SDS–PAGE before transfer of the proteins to a nitrocellulose membrane. […] Antibodies were then detected with Super Signal West Femto Maximum Sensitivity Substrate (Pierce-Biotechnology, Rockford, IL, USA). Quantifications were performed with QuantityOne software (Biorad). […]
compound,measurement,setting,value
"CN[C@@H]1[C@@H](O)[C@@H](O[C@@H]2[C@@H](O)[C@H](O[C@H]3O[C@H]([C@@H](C)O)[C@@H](O)[C@H](O)[C@H]3N)[C@@H](N)C[C@H]2N)OC[C@]1(C)O [G418, reference compound]","Luciferase activity, p53-responsive promoter construct (DMSO = 1)","[1]; 25µM, FL922",0.9453
same,"Luciferase activity, p53-responsive promoter construct (DMSO = 1)","[1]; 25µM, FL932",0.904
same,"Luciferase activity, p53-responsive promoter construct (DMSO = 1)","[1]; 25µM, FL934",1.071
same,"Luciferase activity, p53-responsive promoter construct (DMSO = 1)","[1]; 25µM, average",0.9735
same,"Luciferase activity, p53-responsive promoter construct (DMSO = 1)","[1]; 600µM, FL922",0.9542
same,"Luciferase activity, p53-responsive promoter construct (DMSO = 1)","[1]; 600µM, FL932",0.6225
same,"Luciferase activity, p53-responsive promoter construct (DMSO = 1)","[1]; 600µM, FL934",1.017
same,"Luciferase activity, p53-responsive promoter construct (DMSO = 1)","[1]; 600µM, average",0.8645
same,"luciferase activity, average",[2]; 25µM,5230.12
same,"luciferase activity, exp1",[2]; 25µM,3250.5
same,"luciferase activity, exp1*1,5",[2]; 25µM,4875.75
same,"luciferase activity, exp2",[2]; 25µM,5584.5
same,"luciferase activity, average",[2]; 600µM,9792.88
same,"luciferase activity, exp1",[2]; 600µM,6265.5
same,"luciferase activity, exp1*1,5",[2]; 600µM,9398.25
same,"luciferase activity, exp2",[2]; 600µM,10187.5
same,p53 protein detection (western blot),"[3]; 25 µM, Calu-6",barely detected
"Nc1nc(N)c2[nH]cnc2n1 [DAP, 2,6-diaminopurine]","Luciferase activity, p53-responsive promoter construct (DMSO = 1)","[1]; 6.25µM, FL922",0.8852
same,"Luciferase activity, p53-responsive promoter construct (DMSO = 1)","[1]; 6.25µM, FL932",0.9803
same,"Luciferase activity, p53-responsive promoter construct (DMSO = 1)","[1]; 6.25µM, FL934",0.8382
same,"Luciferase activity, p53-responsive promoter construct (DMSO = 1)","[1]; 6.25µM, average",0.9012
same,"Luciferase activity, p53-responsive promoter construct (DMSO = 1)","[1]; 25µM, FL922",0.7844
same,"Luciferase activity, p53-responsive promoter construct (DMSO = 1)","[1]; 25µM, FL932",0.8921
same,"Luciferase activity, p53-responsive promoter construct (DMSO = 1)","[1]; 25µM, FL934",1.092
same,"Luciferase activity, p53-responsive promoter construct (DMSO = 1)","[1]; 25µM, average",0.9228
same,"Luciferase activity under p53-responsive promoter, in words",[1]; wild-type TP53,failure of DAP to cause a luciferase activity increase
same,"luciferase activity, average",[2]; 0.39µM,1690.75
same,"luciferase activity, exp1",[2]; 0.39µM,838
same,"luciferase activity, exp1*1,5",[2]; 0.39µM,1257
same,"luciferase activity, exp2",[2]; 0.39µM,2124.5
same,"luciferase activity, average",[2]; 0.78µM,2398.5
same,"luciferase activity, exp1",[2]; 0.78µM,1130
same,"luciferase activity, exp1*1,5",[2]; 0.78µM,1695
same,"luciferase activity, exp2",[2]; 0.78µM,3102
same,"luciferase activity, average",[2]; 1.56µM,4502.75
same,"luciferase activity, exp1",[2]; 1.56µM,2583
same,"luciferase activity, exp1*1,5",[2]; 1.56µM,3874.5
same,"luciferase activity, exp2",[2]; 1.56µM,5131
same,"luciferase activity, average",[2]; 6.25µM,33564.1
same,"luciferase activity, exp1",[2]; 6.25µM,10235.5
same,"luciferase activity, exp1*1,5",[2]; 6.25µM,15353.2
same,"luciferase activity, exp2",[2]; 6.25µM,51775
same,"luciferase activity, average",[2]; 25µM,96238.8
same,"luciferase activity, exp1",[2]; 25µM,36932
same,"luciferase activity, exp1*1,5",[2]; 25µM,55398
same,"luciferase activity, exp2",[2]; 25µM,137080
same,"luciferase activity, average",[2]; 100µM,228679
same,"luciferase activity, exp1",[2]; 100µM,118458
same,"luciferase activity, exp1*1,5",[2]; 100µM,177688
same,"luciferase activity, exp2",[2]; 100µM,279670
same,"luciferase activity, average",[2]; 300µM,215676
same,"luciferase activity, exp1",[2]; 300µM,106186
same,"luciferase activity, exp1*1,5",[2]; 300µM,159278
same,"luciferase activity, exp2",[2]; 300µM,272074
same,"luciferase activity, average",[2]; 600µM,184925
same,"luciferase activity, exp1",[2]; 600µM,75195.5
same,"luciferase activity, exp1*1,5",[2]; 600µM,112793
same,"luciferase activity, exp2",[2]; 600µM,257056
same,Synthesis of p53 protein (western blot),[3]; Calu-6 (UGA),dose-dependent synthesis of the p53 protein
same,Lowest concentration at which p53 protein was detected,"[3]; Calu-6, western blot",1.56 µM
